Test [1] relates to Cervical Cancer (HeLa) Cells. Put plainly: MTT cell viability assay, HeLa. In kind it is cell-based. As to conditions: for IC50: unit given, read-out: Cervical Cancer (HeLa) Cells IC50 Values ± SEM. The source says:
(§1) An MTT assay was used to determine the viability of the cells under examination in the desired medium. The mitochondrial dehydrogenase enzyme of the viable cells has a key role in the conversion of the yellow water-soluble substrate 3-(4,5-dimethylthiazol-2-y1)-2,5 diphenyl tetrazolium bromide (MTT) into a dark blue formazan product that is insoluble in water. The anticancer activity of the novel synthetic derivatives (4a–4k) was investigated through an MTT assay, with small modifications following the already published protocols against cancer cell lines (HeLa and MCF-7), using cisplatin as a reference drug. The cytotoxic effect of the tested compounds at 100 µM concentration was determined and represented as the percent growth inhibition compared with the untreated control cells. The first series comprised dihydropyridines analogous from 4a–4f with various substitution patterns on the phenyl ring. […] It is presumed that the 1-naphthyl containing compound 4c was locked in a configuration that is not favorable for an interaction with amino acid residues.
(§2) The anti-proliferative activity of the synthesized compounds was determined in MCF-7 and HeLa cells by an MTT cell viability assay, as described earlier. Briefly, we seeded 1 × 10^4 cells/well in a sterile 96-well culture microtiter plate and incubated them in a 5% CO2 incubator at 37 °C for 24 h. […] After 24 h, the cells were treated with 0.2 mg/mL of MTT reagent for 4 h. We added 10% acidified SDS (sodium dodecyl sulfate) solubilizing solution in propanol (1:1) to solubilize the formazan crystals. After 30 min at 37 °C, the plate was placed on a gyratory shaker to completely dissolve the formazan crystals. The plate was placed on a microplate reader to measure the optical density at 570 nm. The IC50 values were calculated from three independent experiments as previously reported.

The target in test [2] is T1, human tissue nonspecific alkaline phosphatase (h-TNAP) (Homo sapiens, UniProt P05186).
T1 sequence (P05186 18-524): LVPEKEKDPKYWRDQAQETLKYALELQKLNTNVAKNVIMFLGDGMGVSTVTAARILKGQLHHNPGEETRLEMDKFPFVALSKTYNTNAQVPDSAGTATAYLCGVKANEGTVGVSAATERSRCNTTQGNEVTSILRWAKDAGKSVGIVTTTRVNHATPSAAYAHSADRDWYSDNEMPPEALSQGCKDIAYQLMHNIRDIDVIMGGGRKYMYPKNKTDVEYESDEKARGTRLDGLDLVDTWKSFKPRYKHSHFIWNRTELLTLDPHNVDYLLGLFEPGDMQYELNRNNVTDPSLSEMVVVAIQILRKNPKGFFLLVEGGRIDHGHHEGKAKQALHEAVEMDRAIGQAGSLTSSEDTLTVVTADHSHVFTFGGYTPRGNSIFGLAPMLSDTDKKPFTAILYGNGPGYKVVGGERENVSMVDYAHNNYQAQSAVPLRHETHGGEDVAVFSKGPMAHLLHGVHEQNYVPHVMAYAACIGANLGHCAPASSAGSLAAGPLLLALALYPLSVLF
Put plainly: Alkaline phosphatase inhibition assay (p-NPP substrate). In kind it is biochemical. As to conditions: for inhibition at 1000 µM: compounds tested at 1 mM. As for the experimental part: The newly synthesized compounds were tested against human tissue nonspecific alkaline phosphatase (h-TNAP). The compounds were initially tested against the h-TNAP enzymes at 1 mM concentration. The assay buffer (pH 9.5) constituted of 50% glycerol, followed by tris-hydrochloride (50.0 mM), MgCl2 (5.0 mM), and ZnCl2 (0.1 mM) in the solution. The enzyme substrate p-nitrophenyl phosphate (p-NPP) and all the required test compounds were diluted to the required concentration by a dilution buffer method. In a 96-well plate, the assay was started by adding 70 µL of assay buffer followed by 10.0 µL of the test compound (from 1 mM), 10.0 µL of the enzyme (0.5 µL/mL) and then subsequently incubating at 37 °C for 10 min. The reaction was initiated with the addition of 10.0 µL of substrate (5.0 mM p-NPP) into each well and incubated for an additional 30 min.
Percent inhibition was calculated by the formula:% Inhibition = [100 − (abs of test comp/abs of control) × 100]

Test [3] deals with Breast Cancer (MCF-7) Cells. Put plainly: MTT cell viability assay, MCF-7. As to conditions: for inhibition at 100 µM / IC50: Homo sapiens; for inhibition at 100 µM: MCF7, 100 µM, 24 h; for IC50: MCF7, unit given, read-out: Breast Cancer (MCF-7) Cells IC50 Values ± SEM. In kind it is cell-based.
Description: as §1, §2
For orientation: Formazan colour is commonly taken as a measure of viable cells.

The mark [4] stands for this setting: Homo sapiens, HeLa, 100 µM, 24 h.
The mark [5] stands for this setting: Table 2, read-out: Alkaline Phosphatase (h-TNAP) percent inhibition.
The mark [6] stands for this setting: percent inhibition of h-TNAP, Table 1 and text, read-out: Inhibitory Potential.
Setting [7] is: Table 2, unit given in Table 1, read-out: Alkaline Phosphatase (h-TNAP) IC50.
Where [8] appears, read: h-TNAP, assay buffer pH 9.5, Table 1 and text, read-out: IC50 + SEM.

Where two headings read alike, the source gives them in different places.

The IC50 is the concentration that gives 50% inhibition.

For the compound `N.N.[Cl][Pt][Cl]` [Cisplatin, reference compound], the “Cervical Cancer (HeLa) Cells % Inhibition (at 100 µM)” value in test [1] (100 µM, 24 h) amounted to 98.32%. Also, the half-inhibitory concentration (IC50) in test [1] turned out to be 11.3 ± 0.78 µM.
On to `CSc1ccc(C2C(C#N)=C(N)N(Cc3ccccc3)C(N)=C2C#N)cc1` [Compound 4a, 2,6-Diamino-1-benzyl-4-(4-(methylthio)phenyl)-1,4-dihydropyridine-3,5-dicarbonitrile], for which, in test [1], the “activity against HeLa in words” value is on record as “least potency”. In addition, the inhibition at 100 µM in test [1] (setting [4]) is 7.71%; in test [3] it was 37.9%. For the same compound, the “activity against h-TNAP in words” value in test [2] was “least activity”. Besides, the inhibition at 1000 µM came out at 21.1% in test [2] (setting [5]) and 20.9% in test [2] (setting [6]). The “activity against MCF-7 in words” value in test [3] is on record as “least potency”.
`CC(C)c1ccc(C2C(C#N)=C(N)N(Cc3ccccc3)C(N)=C2C#N)cc1` [Compound 4b, 2,6-Diamino-1-benzyl-4-(4-isopropylphenyl)-1,4-dihydropyridine-3,5-dicarbonitrile]: in test [1], the “activity against HeLa in words” value is on record as “least potency”. In addition, the inhibition at 100 µM came out at 11% in test [1] (setting [4]) and 41.8% in test [3]. In addition, the “activity against h-TNAP in words” value in test [2] is “least activity”. In addition, the inhibition at 1000 µM in test [2] (setting [5]) and in test [2] (setting [6]) was 28.3% throughout. For the same compound, in test [3], the “activity against MCF-7 in words” value was “least potency”.
Take `N#CC1=C(N)N(Cc2ccccc2)C(N)=C(C#N)C1c1cccc2ccccc12` [Compound 4c, 2,6-Diamino-1-benzyl-4-(naphthalen-1-yl)-1,4-dihydropyridine-3,5-dicarbonitrile]: the “activity against HeLa in words” value in test [1] was “inactive”. Also, the figures for the inhibition at 100 µM in test [1] (setting [4]) and in test [3] were 21.3% and 23.1%, respectively. In addition, the inhibition at 1000 µM in test [2] (setting [5]) and in test [2] (setting [6]) was 26.2% each time. Besides, the “activity against MCF-7 in words” value in test [3] was “inactive”.
Turning to `COc1ccc(C2C(C#N)=C(N)N(Cc3ccccc3)C(N)=C2C#N)c(OC)c1OC` [Compound 4e, 2,6-Diamino-1-benzyl-4-(2,3,4-trimethoxyphenyl)-1,4-dihydropyridine-3,5-dicarbonitrile], the inhibition at 100 µM in test [1] (setting [4]) stood at 60%; in test [3], 5.73%. Besides, the half-inhibitory concentration (IC50) in test [1] (Homo sapiens, HeLa) was found to be 69.47 ± 0.07 µM; in test [2] (setting [7]), 8800 ± 530 nM; in test [2] (setting [8]) it was 8800 ± 530 nM.
Regarding `COc1c(O)cccc1C1C(C#N)=C(N)N(Cc2ccccc2)C(N)=C1C#N` [Compound 4f, 2,6-Diamino-1-benzyl-4-(3-hydroxy-2-methoxyphenyl)-1,4-dihydropyridine-3,5-dicarbonitrile], the inhibition at 100 µM worked out at 77.3% in test [1] (setting [4]) and 61.7% in test [3]. Moreover, the IC50 amounted to 57 ± 7.1 µM in test [1] (Homo sapiens, HeLa); 2250 ± 160 nM in test [2] (setting [7]); 2250 ± 160 nM in test [2] (setting [8]); 77 ± 8.3 µM in test [3].
For the compound `CCOc1ccc(-c2c(C#N)c(N)nc(NCCc3ccc(S(N)(=O)=O)cc3)c2C#N)cc1` [Compound 4g, 4-(2-((6-Amino-3,5-dicyano-4-(4-ethoxyphenyl)pyridine-2yl)amino)ethyl)benzene sulfonamide], the inhibition at 100 µM in test [1] (setting [4]) was found to be 67.1%; in test [3], 53.3%. The IC50 came to 63 ± 4.1 µM in test [1] (Homo sapiens, HeLa); 490 ± 25 nM in test [2] (setting [7]); 490 ± 25 nM in test [2] (setting [8]); 98 ± 5.7 µM in test [3].
As to `CSc1ccc(-c2c(C#N)c(N)nc(NCCc3ccc(S(N)(=O)=O)cc3)c2C#N)cc1` [Compound 4h, 4-(2-((6-Amino-3,5-dicyano-4-(4-(methylthio)phenyl)pyridin-2-yl)amino)ethyl)benzene sulfonamide], the inhibition at 100 µM in test [1] (setting [4]) came out at 38.4%; in test [3], 57.2%. Further, the “activity against h-TNAP in words” value in test [2] is given as “least inhibitory activity”. Also, the inhibition at 1000 µM in test [2] (setting [5]) and in test [2] (setting [6]) was 37.6% throughout. Besides, the 50% inhibitory concentration (IC50) in test [3] is 109.9 ± 1.07 µM.
With `CC(C)c1ccc(-c2c(C#N)c(N)nc(NCCc3ccc(S(N)(=O)=O)cc3)c2C#N)cc1` [Compound 4i], the inhibition at 100 µM in test [1] (setting [4]) was 39.3%; in test [3], 34.6%. Besides, the “activity against h-TNAP in words” value in test [2] is reported as “least inhibitory activity”. The inhibition at 1000 µM in test [2] (setting [5]) and in test [2] (setting [6]) was 31.7% in each case.
Regarding `CCOc1ccc(-c2c(C#N)c(N)nc(NCCCn3ccnc3)c2C#N)cc1` [Compound 4j, 2-((3-(1H-Imidazol-1-yl)propyl)amino)-6-amino-4-(4-ethoxyphenyl)pyridine-3,5-dicarbonitrile], the values for the inhibition at 100 µM in test [1] (setting [4]) and in test [3] were 77.8% and 72.4%, respectively. Besides, the IC50 in test [1] (Homo sapiens, HeLa) is 57 ± 1.5 µM; in test [2] (setting [7]), 1220 ± 120 nM; in test [2] (setting [8]), 1220 ± 120 nM; in test [3], 54 ± 1.7 µM.
In the case of `CC(C)c1ccc(-c2c(C#N)c(N)nc(NCCCn3ccnc3)c2C#N)cc1` [Compound 4k, 2-((3-(1H-Imidazol-1-yl)propyl)amino)-6-amino-4-(4-(isopropyle)phenyl)pyridine-3,5-dicarbonitrile], the results for the inhibition at 100 µM in test [1] (setting [4]) and in test [3] were 63.8% and 40.1%, respectively. Moreover, the IC50 in test [1] (Homo sapiens, HeLa) came out at 66 ± 1.97 µM. Further, the “activity against h-TNAP in words” value in test [2] was “comparatively inactive”. In addition, the inhibition at 1000 µM in test [2] (setting [5]) and in test [2] (setting [6]) was 36.5% throughout.
Take `COc1cccc2c1C(=O)c1c(O)c3c(c(O)c1C2=O)C[C@@](O)(C(=O)CO)C[C@@H]3O[C@H]1C[C@H](N)[C@H](O)[C@H](C)O1` [Doxorubicin, reference compound]: in test [3], the inhibition at 100 µM was 98.9% and the half-maximal inhibitory concentration (IC50) was 2.81 ± 0.39 µM.
